# Source: patent US20040248766A1, “Selective inhibition of intracellular amyloid-beta neurotoxicity in human neurons” (priority 2001, published 2004)
# “Also recorded” adds a separate entry of the source. Numbered stars: 1 amine (or outer) side, 2 acyl side, 3 side chain; on linkers, the order of the positions; unused ones are H or OH. Bridge positions count the residues as written; N and C are the ends. Square brackets hold non-standard residues; d marks the D form. Peptide text beside a SMILES is read from it. I, II: the chains in the order shown. * marks the point of attachment. Actinocin(9to1) = Cc1c2oc3c(C)ccc(C(=O)[*:1])c3nc-2c(C(=O)[*:2])c(N)c1=O; NMeV = CN[C@H](C(=O)O)C(C)C; Cbz = O=C(OCc1ccccc1)*; Sar = CNCC(=O)O; CH2F = FC*
# Legend:
# [1] = tested on: Aβ1-42-mediated neuronal cell death; test: Inhibition of Aβ1-42-mediated neuronal cell death in Aβ1-42-microinjected neurons, TUNEL; format: cell-based, human; details: 1 hour pre-incubation, 24 hours; for inhibition of the Aβ1-42-induced cell death / prevention of Aβ1-42-induced neuronal cell death (in words): 5 μM inhibitor; for block of Aβ1-42-induced neuronal death (in words): 5 μg/ml cycloheximide or 5 μM actinomycin D
# Experimental: cDNA Clones. Human Bcl-2 cDNA, Bax α cDNA, and APP695 cDNA were cloned into pCep4β (Invitrogen Canada, Burlington, ON, Canada). The p53 wild type and p53R273H dominant negative cDNA may be cloned in the pCMV-NEO vector. These cDNAs were purified through GlassMAXTM (Gibco-BRL, Rockville, Mass.) and diluted at 30 ng/μl in PBS before injection.
# Neutralizing Bax antibodies. Monoclonal anti-Bax 6A7 (amino acids 12-24: Pharmingen, San Diego, Calif.) and 2D2 (amino acids 3-16: Trevigen, Gaithersburg, Md.), polyclonal anti-Bax N-20 (Santa Cruz Biotechnology, Santa Cruz, Calif.), monoclonal anti-APP 22C11 (Roche Molecular Biochemicals, Laval, PQ, Canada), mouse IgG or rabbit sera were diluted at 50 μg/ml (for 6A7, 2D2, mouse IgG and 22C11) or 25 μg/ml (for polyclonal anti-Bax and rabbit sera) in PBS before use. A toxicity curve was done to determine this concentration as the highest non-toxic concentration that can be injected in neurons.
# (§1) Microinjection. Thin-walled Borosilicate glass capillaries (OD 1.0 mm, ID 0.5 mm) with microfilament (MTW1OOF-4, World Precision Instrument, Sarasota, Fla.) were pulled with a Flaming/Brown Micropipefte Puller (β-87, Sutter, Novato, Calif.) to obtain injection needles with a tip diameter of ˜0.5 μm. Microinjection was performed in the cytosol of each cell using the Eppendorf Microinjector 5246 (Hamburg, Germany) and Burleigh Micromanipulator MIS-5000 (Victor, N.Y.). Human neurons were injected with 25 pl/shot at an injection pressure of 100 hPa, a compensation pressure of 50 hPa, and an injection time of 0.1 s. Human astrocytes, M17, NT2 and La—N-1 cells were injected with 8 pl/shot at an injection pressure of 50 hPa, a compensation pressure of 30 hPa and an injection time of 0.1 s.
# Measurement of neuronal apoptosis. Cells were fixed in freshly prepared 4% paraformaldehyde/4% sucrose for 20 minutes at room temperature and permeabilized in 0.1% Triton X-100, 0.1% sodium citrate on ice for 2 minutes. Terminal deoxynucleotidyl transferase-mediated dUTP nick end labeling (TUNEL) was performed using the In Situ Cell Death Detection Kit I as described by the manufacturer (Roche Molecular Biochemicals). The percentage of cell death was determined as the ratio of the number of DTR-TLUNEL-double-positive cells over the total number of DIR-positive cells.
# Treatment with caspase inhibitors, cycloheximide, actinomycin D. Caspase pan inhibitor, Z-Valine-Alanine-Aspartic acid-fluoromethylketone (Z-VAD-fmk) (Biomol, Plymounth Meeting, PA); caspase-6 inhibitor, Z-Valine-Glutamic acid-Isoleucine-Aspartic acid-fmk (Z-VEID-fnk); caspase-3 inhibitor, Z-Aspartic acid-Glutamic acid-Valine-Aspartic acid-fmk (Z-DEVD-fmk); and caspase-8 inhibitor, Z-Isoleucine-Glutamic acid-Threomine-Aspartic acid-fmk (Z-IETD-fmk) (Sigma, Oakville, ON, Canada) were dissolved in 100% dimethylsulphoxide (DMSO, Sigma) at 5 mM and were diluted at 5 μM into culture medium immediately before use. The medium was changed every 48 hours.
# Stock solutions of 5 mg/ml cycloheximide and 200 IM actinomycin D were made in sterile distilled water and diluted to 5 μg/ml for cycloheximide and 5 μM for actinomycin D in the culture medium immediately before use.
# Dextran Texas Red (DTR) was co-injected with Aβ1-42 to identi the injected cells from the non-injected cells. The experiment was done on 200 microinjected neurons per preparation of neurons and on three independent neuron preparations.
# primary human neurons = test: Microinjection of Aβ peptides into the cytosol of primary human neurons, cell death by TUNEL; format: cell-based; details: for intracellular toxicity to human neurons (in words): peptide microinjected into cytosol; for neuronal cell death (in words): fibrillized or non-fibrillized preparation, 10 nM, 24, 48 and 96 hours
# Experimental: Cell cultures. Primary cultures of human neurons and astrocytes were prepared as described in LeBlanc, A., J. Neurosci. 15:7837-46 (1995), incorporated herein by reference. Fresh brain tissues were dissociated with 0.25% trypsin (Gibco-BRL) in phosphate buffered saline (PBS) at 37° C. for 15 minutes. The trypsin was inactivated. by adding 10% decomplemented fetal bovine serum (FBS, HyClone, Logan, Utah.) to the mixture. The dissociated tissues were triturated in 0.1 mg/ml DNaseI (Gibco-BRL) to obtain a homogeneous mixture. The mixture was filtered successively through 130 and 70 gm filters and centrifuged at 15,000 g for 10 minutes at 10° C. to pellet the cells. The cell pellet was washed once with PBS and once with minimal essential media (MEM, Gibco-BRL) in Earle's balanced salt solution containing 0.225% sodium bicarbonate, 1 mM sodium pyruvate, 2 mM L-glutamine, 0.1% dextrose, 1×antibiotic Pen-Strep (all from Gibco-BRL) and 5% decomplemented FBS.
# The cells were plated on poly-L-lysine-coated ACLARTM (Cat. No.: 33C; thickness: 0.5 mm; Allied Chemical, Minneapolis, Minn.) coverslips at a density of 3×10^6 cells/ml. Neurons and astrocytes were incubated at 37° C. in the MEM media with 5% CO2, and the media were changed every 48 hours. For neuron culture, 1 mM fluorodeoxyuridine (FDU, Gibco-BRL) was applied for the first 3 feedings and after that, used weekly to prevent proliferation of dividing cells. […] Microinjection or treatment was performed 10 days after plating for neurons and astrocytes.
# Aβ peptides. Aβ peptides (Bachem, King of Prussia, Pa.) were dissolved in sterile distilled water at 25 μM and incubated at 37° C. for 5 days. The peptides stock solutions were frozen and diluted in 1×PBS immediately before microinjection. […] A 250 μl aliquot was diluted to 0.25 μM and immediately frozen at −20° C. in aliquots of 50 μl. The remaining solution was incubated at 37° C. in Eppendorf tubes with continuous mixing by inversion. After incubation, the samples were removed, vortexed, sonicated twice for 1 minute in a bath type sonicator (ELMA GmbH & Co. KG, Germany) and frozen at −20° C. in […]. Each aliquot was used once to avoid possible effects of freeze and thaw cycles.
# as §1
# The diluted peptides were injected at the indicated concentrations with 100 μg/ml dextran Texas Red (DTR) (MW: 3000, Molecular Probes, Eugene, Oreg.) as a fluorescent marker to recognize the injected cells.
# Measurement of neuronal apoptosis. Cells were fixed in freshly prepared 4% paraformaldehyde/4% sucrose for 20 minutes at room temperature and permeabilized in 0.1% Triton X-100, 0.1% sodium citrate on ice for 2 minutes. Terminal deoxynucleotidyl transferase-mediated dUTP nick end labeling (TUNEL) was performed using the In Situ Cell Death Detection Kit I as described by the manufacturer (Roche Molecular Biochemicals).
# human neurons = test: Exposure of human neurons to extracellular Aβ peptides, TUNEL and propidium iodide; format: cell-based; details: 10 μM extracellular, 24 hours
# Experimental: To test if this particular batch of peptide might be neurotoxic, neurons were treated with 10 μM of peptides for 24 hours.
compound,measurement,setting,value
"CC(C)[C@H](NC(=O)[C@H](CCC(=O)O)NC(=O)[C@H](CC(=O)O)NC(=O)OCc1ccccc1)C(=O)N[C@@H](CC(=O)O)C(=O)CF [Z-DEVD-fmk, Z-Aspartic acid-Glutamic acid-Valine-Aspartic acid-fmk]",inhibition of the Aβ1-42-induced cell death,[1],30%
"CC[C@H](C)[C@H](NC(=O)OCc1ccccc1)C(=O)N[C@@H](CCC(=O)O)C(=O)N[C@H](C(=O)N[C@@H](CC(=O)O)C(=O)CF)[C@@H](C)O [Z-IETD-fmk, Z-Isoleucine-Glutamic acid-Threomine-Aspartic acid-fmk] (Cbz-IETD-CH2F)",prevention of Aβ1-42-induced neuronal cell death (in words),[1],completely prevents
"COC(=O)C[C@H](NC(=O)[C@H](C)NC(=O)[C@@H](NC(=O)OCc1ccccc1)C(C)C)C(=O)CF [Z-VAD-fmk, Z-Valine-Alanine-Aspartic acid-fluoromethylketone] (Cbz-Val-Ala-Asp(OMe)-CH2F)",prevention of Aβ1-42-induced neuronal cell death (in words),[1],completely prevents
COC(=O)C[C@H](NC(=O)[C@H](C)NC(=O)[C@@H](NC(=O)[C@H](Cc1ccc(O)cc1)NC(=O)OCc1ccccc1)C(C)C)C(=O)CF [Z-YVAD-fmk],inhibition of the Aβ1-42-induced cell death,[1],30%
"Cc1c2oc3c(C)ccc(C(=O)N[C@@H]4C(=O)N[C@H](C(C)C)C(=O)N5CCC[C@H]5C(=O)N(C)CC(=O)N(C)[C@@H](C(C)C)C(=O)O[C@@H]4C)c3nc-2c(C(=O)N[C@@H]2C(=O)N[C@H](C(C)C)C(=O)N3CCC[C@H]3C(=O)N(C)CC(=O)N(C)[C@@H](C(C)C)C(=O)O[C@@H]2C)c(N)c1=O [actinomycin D] (I: T[dV]P[Sar][NMeV] / II: T[dV]P[Sar][NMeV]; ester I:1-I:C, II:1-II:C; linker I:N-II:N via Actinocin(9to1))",block of Aβ1-42-induced neuronal death (in words),[1],efficiently block
C[C@@H]1C[C@@H]([C@H](O)CC2CC(=O)NC(=O)C2)C(=O)[C@@H](C)C1 [cycloheximide],block of Aβ1-42-induced neuronal death (in words),[1],efficiently block
Aβ1-40: 40 amino acid amyloid β peptide (SEQ ID NO: 1),effect on cell viability,"primary human neurons; 10 nM aged peptide, between 24 and 96 hours",do not affect cell viability
same,cell death of microinjected neurons,"primary human neurons; 10 nM aged peptide, sixteen days after injection",50%
same,intracellular toxicity to human neurons (in words),primary human neurons,not observed to be toxic; also recorded: significant apoptosis only 16 days after microinjection
same,toxicity of extracellular peptide (in words),human neurons,"do not undergo cell death; also recorded: Neither extracellular Aβ1-40, Aβ1-42, or Aβ40-1 are toxic"
Z-Valine-Glutamic acid-Isoleucine-Aspartic acid-fmk [Z-VEID-fmk],prevention of Aβ1-42-induced neuronal cell death (in words),[1],completely prevents
fibrillized Aβ1-40: Aβ1-40 incubated at 37° C. with mixing,neuronal cell death (in words),primary human neurons,neither fibrillized nor non-fibrillized Aβ1-40 cause significant cell death
non-fibrillized Aβ1-40: disaggregated Aβ1-40 diluted and immediately frozen,neuronal cell death (in words),primary human neurons,neither fibrillized nor non-fibrillized Aβ1-40 cause significant cell death
non-fibrillized Aβ1-42: disaggregated Aβ1-42 diluted and immediately frozen,intracellular toxicity to human neurons (in words),primary human neurons,as neurotoxic as fibrillized
